What all share (type): cell-based
The target in one experiment is T1, PTGER2 (EP2) (Homo sapiens, UniProt P43116).
T1 construct: host or cells: HEK 293 (PathHunter, stably transfected)
As to the kind of experiment: hEP2 b-Arrestin Assay (PathHunter HEK 293 PTGER2 b-arrestin cells, PGE2 5 μM). Conditions: antagonistic activity, beta-arrestin assay, HEK 293 PTGER2 cells, PGE2 5 μM (EC80); read-out: hEP2 b-arr IC50. An outline of the steps: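 PathHunter enzyme-fragment complementation in HEK 293 cells: compounds (10 μM-2 nM or 1 μM-0.2 nM) pre-incubated 15 min at 37 °C, then 5 μM PGE2 (EC80) for 120 min at 37 °C. Chemiluminescence read after 1 h detection; IC50 from duplicate dose-response fits, means of repeats.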

Another experiment has as its target T2, PTGER4 (EP4) (Homo sapiens, UniProt P35408).
T2 construct: host or cells: HEK 293 (PathHunter, stably transfected)
As to the kind of experiment: hEP4 b-Arrestin Assay (PathHunter HEK 293 PTGER4 b-arrestin cells, PGE2 20 nM). Conditions: antagonistic activity, beta-arrestin assay, HEK 293 PTGER4 cells, PGE2 20 nM (EC80); read-out: hEP4 b-arr IC50. An outline of the steps:
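PathHunter HEK 293 EP4 b-arrestin enzyme-complementation cells preincubated 15 min at 37° C with compound (10 μM-2 nM or 1 μM-0.2 nM), then stimulated 120 min with 20 nM PGE2 (EC80). Chemiluminescence read; IC50 from duplicate % activity vs DMSO, one-site fit, averaged over repeats.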

The next experiment deals with T3, EP2 (Homo sapiens, UniProt P43116).
T3 construct: SF295 glioblastoma cells express high endogenous EP2 and no EP4; host or cells: SF295 glioblastoma cells
In words: hEP2 cAMP Assay (SF295 glioblastoma cells, HTRF cAMP, PGE2 75 nM). Conditions: antagonistic activity, PGE2 75 nM (EC80). An outline of the steps: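 IC50 values derive from duplicate-point curves of percent cAMP relative to DMSO, read by HTRF (665/620 nm) against a cAMP calibrator. Compounds (30 μM to 0.01 nM ranges) were given 45 min at room temperature before 30 min with 75 nM PGE2, in EP2-only SF295 cells with 2 mM IBMX.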

For another experiment, the target named is T4, EP4 (Homo sapiens, UniProt P35408).
T4 construct: BT549 breast cancer cells, express high endogenous EP4 levels and very low EP2 levels; host or cells: BT549 breast cancer cells
As to the kind of experiment: hEP4 cAMP Assay (BT549 breast cancer cells, HTRF cAMP, PGE2 6 nM). The conditions noted are these: antagonistic activity, PGE2 6 nM (EC80). Put shortly:
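Antagonism is measured as inhibition of PGE2 (6 nM final, EC80) cAMP accumulation in EP4-expressing BT549 breast cancer cells, after a 45 min room-temperature compound pre-incubation and 30 min agonist step, with 2 mM IBMX present. HTRF ratio gives cAMP relative to DMSO; IC50 fitted, means over repeat runs.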

This is an account of results in patent publication US11446298B2, “Pyrimidine derivatives” (Idorsia Pharmaceuticals Ltd, priority 2017, dated 2022).

SMILES strings stand for the structures. pIC50: −log10 of the molar value.

One may read the pIC50 as the negative decadic logarithm of the IC50, by convention in mol/L.

T1 sequence (P43116 whole entry): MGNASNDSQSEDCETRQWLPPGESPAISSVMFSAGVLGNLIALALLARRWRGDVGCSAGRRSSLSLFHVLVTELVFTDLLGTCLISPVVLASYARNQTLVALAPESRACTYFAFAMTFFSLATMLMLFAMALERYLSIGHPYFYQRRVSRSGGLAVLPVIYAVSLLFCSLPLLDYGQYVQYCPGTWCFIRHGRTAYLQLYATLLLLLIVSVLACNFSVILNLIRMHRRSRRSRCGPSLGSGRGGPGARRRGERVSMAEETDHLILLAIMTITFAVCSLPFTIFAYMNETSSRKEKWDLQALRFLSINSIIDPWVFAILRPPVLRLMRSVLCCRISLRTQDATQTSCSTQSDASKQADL
T3 sequence (P43116 whole entry): as above
T4 sequence (P35408 whole entry): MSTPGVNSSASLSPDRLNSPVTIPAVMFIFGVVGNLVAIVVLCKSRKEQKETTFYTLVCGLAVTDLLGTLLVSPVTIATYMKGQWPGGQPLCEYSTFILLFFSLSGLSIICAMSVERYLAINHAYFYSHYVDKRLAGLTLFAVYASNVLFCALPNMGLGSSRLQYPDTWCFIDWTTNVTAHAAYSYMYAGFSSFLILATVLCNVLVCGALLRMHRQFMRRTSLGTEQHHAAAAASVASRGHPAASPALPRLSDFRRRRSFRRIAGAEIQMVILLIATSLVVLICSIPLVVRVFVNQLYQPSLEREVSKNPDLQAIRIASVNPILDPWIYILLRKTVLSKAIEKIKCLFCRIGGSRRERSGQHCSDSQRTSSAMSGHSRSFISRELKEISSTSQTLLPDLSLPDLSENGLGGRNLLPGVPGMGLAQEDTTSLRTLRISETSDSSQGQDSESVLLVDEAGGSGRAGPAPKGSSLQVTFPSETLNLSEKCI
T2 sequence (P35408 whole entry): as above

As to `CCOc1cc(-c2cc(NCCc3cccc4c3ccn4C)ncn2)sc1C(=O)O` [Example 25, 3-Ethoxy-5-{6-[2-(1-methyl-1H-indol-4-yl)-ethylamino]-pyrimidin-4-yl}-thiophene-2-carboxylic acid], the pIC50 on PTGER2 (EP2) was 7.82; at PTGER4 (EP4), 6.84; at EP2, 7.82; against EP4 it was 7.32.
`CCOc1cc(-c2cc(NCCc3c(OC)ccc4ccccc34)ncn2)ccc1NC(=O)C(=O)O` [Example 133, N-(2-Ethoxy-4-{6-[2-(2-methoxy-naphthalen-1-yl)-ethylamino]-pyrimidin-4-yl}-phenyl)-oxalamic acid]: the pIC50 on PTGER2 (EP2) was 8.22; on PTGER4 (EP4), 7.39; against EP2, 7.66; on EP4 it was 7.10.
For `CCOc1cc(-c2cc(NCCc3c(OCC)ccc4ccccc34)ncn2)ccc1C(=O)O` [Example 179, 2-Ethoxy-4-{6-[2-(2-ethoxy-naphthalen-1-yl)-ethylamino]-pyrimidin-4-yl}-benzoic acid], the pIC50 at PTGER2 (EP2) was 8.40; at PTGER4 (EP4) it was 6.03; against EP2 it was 8.10; on EP4 it was 5.82.
As for `CCCCOc1cc(-c2cc(NCCc3c(OC)ccc4ccccc34)ncn2)ccc1C(=O)O` [Example 119, 2-Butoxy-4-{6-[2-(2-methoxy-naphthalen-1-yl)-ethylamino]-pyrimidin-4-yl}-benzoic acid], the pIC50 on PTGER2 (EP2) is 7.74; at PTGER4 (EP4), 6.65; against EP2 it was 7.92; against EP4 it was 6.70.
For the compound `CCOc1cc(-c2cc(NCCc3c(OCC)ccc4c3OCO4)ncn2)sc1C(=O)O` [Example 45, 3-Ethoxy-5-{6-[2-(5-ethoxy-benzo[1,3]dioxol-4-yl)-ethylamino]-pyrimidin-4-yl}-thiophene-2-carboxylic acid], the pIC50 at PTGER2 (EP2) was 8.00; on PTGER4 (EP4), 7.28; at EP2, 8.00; against EP4, 7.36.
For the compound `CCOc1cc(-c2cc(NCCc3c(OCC)ccc4ccccc34)ncn2)sc1C(=O)O` [Example 27, 3-Ethoxy-5-{6-[2-(2-ethoxy-naphthalen-1-yl)-ethylamino]-pyrimidin-4-yl}-thiophene-2-carboxylic acid], the pIC50 on PTGER2 (EP2) is 8.52; on PTGER4 (EP4), 7.28; at EP2, 8.70; on EP4, 7.48.
Regarding `CCOc1cc(-c2cc(NCCc3c(C#N)ccc4ccccc34)ncn2)ccc1C(=O)O` [Example 67, 4-{6-[2-(2-Cyano-naphthalen-1-yl)-ethylamino]-pyrimidin-4-yl}-2-ethoxy-benzoic acid], the negative logarithm of the IC50 (pIC50) on PTGER2 (EP2) is 7.54; on PTGER4 (EP4) it was 6.30; against EP2, 7.60; on EP4 it was 6.51.
In the same order, the values of `CSc1cc(-c2cc(NCCc3cccc4c(C)cccc34)ncn2)ccc1C(=O)O` [Example 173, 4-{6-[2-(5-Methyl-naphthalen-1-yl)-ethylamino]-pyrimidin-4-yl}-2-methylsulfanyl-benzoic acid] are 8.00, 6.76, 7.82 and 6.85.
The corresponding values for `CCOc1cc(-c2cc(NCCc3cccc4cccnc34)ncn2)sc1C(=O)O` [Example 23, 3-Ethoxy-5-[6-(2-quinolin-8-yl-ethylamino)-pyrimidin-4-yl}-thiophene-2-carboxylic acid] are 6.52, 6.53, 6.61 and 6.62.
In the same order, the values of `CCCc1cc(-c2cc(NCCc3c(OC)ccc4ccccc34)ncn2)ccc1C(=O)O` [Example 121, 4-{6-[2-(2-Methoxy-naphthalen-1-yl)-ethylamino]-pyrimidin-4-yl}-2-propyl-benzoic acid] are 7.92, 6.51, 8.30 and 7.28.
